Results as given in patent US20150105252A1, “SUBSTITUTED PYRAZOLES AS HERBICIDES” (E I DU PONT DE NEMOURS AND COMPANY, priority 2013, published 2015).

How the values were obtained:
Assay in all cases: Test C postemergence
pigweed = assay type: in vivo, Amaranthus retroflexus
From the text: (§1) Seeds of plant species selected from blackgrass (Alopecurus myosuroides), ryegrass, Italian (Italian ryegrass, Lolium multiflorum), wheat (winter wheat, Triticum aestivum), galium (catchweed bedstraw, Galium aparine), corn (Zea mays), crabgrass, large (large crabgrass, Digitaria sanguinalis), foxtail, giant (giant foxtail, Setaria faberii), johnsongrass (Sorghum halepense), lambsquarters (Chenopodium album), morningglory (Ipomoea coccinea), nutsedge, yellow (yellow nutsedge, Cyperus esculentus), pigweed (redroot pigweed, Amaranthus retroflexus), ragweed (common ragweed, Ambrosia elation), soybean (Glycine max), barnyardgrass (Echinochloa crus-galli), oilseed rape (Brassica napus), waterhemp (common waterhemp, Amaranthus rudis), oat, wild (wild oat, Avena fatua), kochia (Kochia scoparia), Surinam grass (Brachiaria decumbens), foxtail, green (green foxtail, Setaria viridis), goosegrass (Eleusine indica), bromegrass, downy (downy bromegrass, Bromus tectorum), nightshade (eastern black nightshade, Solanum ptycanthum), cocklebur (common cocklebur, Xanthium strumarium), cupgrass, woolly (woolly cupgrass, Eriochloa villosa), bermudagrass (Cynodon dactylon), sunflower, (common oilseed sunflower, Helianthus annuus), Russian thistle (Salsola kali), and velvetleaf (Abutilon theophrasti) were planted into a blend of loam soil and sand and treated preemergence with test chemicals formulated in a non-phytotoxic solvent mixture which included a surfactant.
(§2) At the same time, plants selected from these crop and weed species and also chickweed (common chickweed, Stellaria media), canarygrass (littleseed canarygrass, Phalaris minor), and deadnettle (henbit deadnettle, Lamium amplexicaule), were planted in pots containing Redi-Earth® planting medium (Scotts Company, 14111 Scottslawn Road, Marysville, Ohio 43041) comprising spaghnum peat moss, vermiculite, wetting agent and starter nutrients and treated with postemergence applications of test chemicals formulated in the same manner. Plants ranged in height from 2 to 18 cm (1- to 4-leaf stage) for postemergence treatments. Treated plants and controls were maintained in a greenhouse for 13 to 15 days, after which time all species were compared to controls and visually evaluated. Plant response ratings, summarized in Table C, are based on a scale of 0 to 100 where 0 is no effect and 100 is complete control. A dash (-) response means no test result.

ryegrass, Italian = assay type: in vivo, Lolium multiflorum
From the text: as §1, §2

waterhemp = assay type: in vivo, Amaranthus rudis
From the text: as §1, §2

blackgrass = assay type: in vivo, Alopecurus myosuroides
From the text: as §1, §2

wheat = assay type: in vivo, Triticum aestivum
From the text: as §1, §2

ragweed = assay type: in vivo, Ambrosia elation
From the text: as §1, §2

morningglory = assay type: in vivo, Ipomoea coccinea
From the text: as §1, §2

lambsquarters = assay type: in vivo, Chenopodium album
From the text: as §1, §2

johnsongrass = assay type: in vivo, Sorghum halepense
From the text: as §1, §2

oat, wild = assay type: in vivo, Avena fatua
From the text: as §1, §2

chickweed = assay type: in vivo, Stellaria media
From the text: as §1, §2

oilseed rape = assay type: in vivo, Brassica napus
From the text: as §1, §2

barnyardgrass = assay type: in vivo, Echinochloa crus-galli
From the text: as §1, §2

foxtail, giant = assay type: in vivo, Setaria faberii
From the text: as §1, §2

nutsedge, yellow = assay type: in vivo, Cyperus esculentus
From the text: as §1, §2

soybean = assay type: in vivo, Glycine max
From the text: as §1, §2

kochia = assay type: in vivo, Kochia scoparia
From the text: as §1, §2

[1] = Postemergence, 31 g ai/ha, visually evaluated after 13 to 15 days
[2] = postemergence, 62 g ai/ha, scale 0 to 100
[3] = postemergence, 250 g ai/ha, scale 0 to 100 (0 no effect, 100 complete control)
[4] = postemergence, 125 g ai/ha, scale 0 to 100, 0 no effect, 100 complete control

## CCc1cc(C(=O)NCC(F)(F)F)nn1Cc1ccnc(C(F)(F)F)c1 [Compound 78, 5-ethyl-N-(2,2,2-trifluoroethyl)-1-[[(2-trifluoromethyl)-4-pyridinyl]methyl]-1H-pyrazole-3-carboxamide]
pigweed; [1]
  Plant response rating (scale of 0 to 100 where 0 is no effect and 100 is complete control), Pigweed: 40
pigweed; [2]
  Pigweed plant response rating: 75
pigweed; [3]
  Plant response rating, Pigweed: 98
pigweed; [4]
  Plant response rating, Pigweed: 90
ryegrass, Italian; [1]
  Plant response rating (scale of 0 to 100 where 0 is no effect and 100 is complete control), Ryegrass, Italian: 5
ryegrass, Italian; [2]
  Ryegrass, Italian plant response rating: 5
ryegrass, Italian; [3]
  Plant response rating, Ryegrass, Italian: 35
ryegrass, Italian; [4]
  Plant response rating, Ryegrass, Italian: 5
waterhemp; [1]
  Plant response rating (scale of 0 to 100 where 0 is no effect and 100 is complete control), Waterhemp: 50
waterhemp; [2]
  Waterhemp plant response rating: 70
waterhemp; [3]
  Plant response rating, Waterhemp: 95
waterhemp; [4]
  Plant response rating, Waterhemp: 80
blackgrass; [1]
  Plant response rating (scale of 0 to 100 where 0 is no effect and 100 is complete control), Blackgrass: 5
blackgrass; [2]
  Blackgrass plant response rating: 5
blackgrass; [3]
  Plant response rating, Blackgrass: 50
blackgrass; [4]
  Plant response rating, Blackgrass: 10
wheat; [1]
  Plant response rating (scale of 0 to 100 where 0 is no effect and 100 is complete control), Wheat: 5
wheat; [2]
  Wheat plant response rating: 10
wheat; [3]
  Plant response rating, Wheat: 35
wheat; [4]
  Plant response rating, Wheat: 10
ragweed; [1]
  Plant response rating (scale of 0 to 100 where 0 is no effect and 100 is complete control), Ragweed: 35
ragweed; [2]
  Ragweed plant response rating: 75
ragweed; [3]
  Plant response rating, Ragweed: 95
ragweed; [4]
  Plant response rating, Ragweed: 85
morningglory; [1]
  Plant response rating (scale of 0 to 100 where 0 is no effect and 100 is complete control), Morningglory: 70
morningglory; [2]
  Morningglory plant response rating: 80
morningglory; [3]
  Plant response rating, Morningglory: 100
morningglory; [4]
  Plant response rating, Morningglory: 90
lambsquarters; [1]
  Plant response rating (scale of 0 to 100 where 0 is no effect and 100 is complete control), Lambsquarters: 60
lambsquarters; [2]
  Lambsquarters plant response rating: 75
lambsquarters; [3]
  Plant response rating, Lambsquarters: 98
lambsquarters; [4]
  Plant response rating, Lambsquarters: 95
johnsongrass; [1]
  Plant response rating (scale of 0 to 100 where 0 is no effect and 100 is complete control), Johnsongrass: 0
johnsongrass; [2]
  Johnsongrass plant response rating: 5
johnsongrass; [3]
  Plant response rating, Johnsongrass: 75
johnsongrass; [4]
  Plant response rating, Johnsongrass: 55
oat, wild; [1]
  Plant response rating (scale of 0 to 100 where 0 is no effect and 100 is complete control), Oat, Wild: 5
oat, wild; [2]
  Oat, Wild plant response rating: 5
oat, wild; [3]
  Plant response rating, Oat, Wild: 30
oat, wild; [4]
  Plant response rating, Oat, Wild: 10
chickweed; [1]
  Plant response rating (scale of 0 to 100 where 0 is no effect and 100 is complete control), Chickweed: 65
chickweed; [2]
  Chickweed plant response rating: 80
chickweed; [3]
  Plant response rating, Chickweed: 85
chickweed; [4]
  Plant response rating, Chickweed: 80
Oilseed rape; [1]
  Plant response rating (scale of 0 to 100 where 0 is no effect and 100 is complete control), Oilseed Rape: 45
Oilseed rape; [2]
  Oilseed Rape plant response rating: 45
Oilseed rape; [3]
  Plant response rating, Oilseed Rape: 55
Oilseed rape; [4]
  Plant response rating, Oilseed Rape: 50
barnyardgrass; [1]
  Plant response rating (scale of 0 to 100 where 0 is no effect and 100 is complete control), Barnyardgrass: 5
barnyardgrass; [2]
  Barnyardgrass plant response rating: 15
barnyardgrass; [3]
  Plant response rating, Barnyardgrass: 80
barnyardgrass; [4]
  Plant response rating, Barnyardgrass: 15
foxtail, giant; [1]
  Plant response rating (scale of 0 to 100 where 0 is no effect and 100 is complete control), Foxtail, Giant: 15
foxtail, giant; [2]
  Foxtail, Giant plant response rating: 20
foxtail, giant; [3]
  Plant response rating, Foxtail, Giant: 95
foxtail, giant; [4]
  Plant response rating, Foxtail, Giant: 50
nutsedge, yellow; [1]
  Plant response rating (scale of 0 to 100 where 0 is no effect and 100 is complete control), Nutsedge, Yellow: 5
nutsedge, yellow; [2]
  Nutsedge, Yellow plant response rating: 5
nutsedge, yellow; [3]
  Plant response rating, Nutsedge, Yellow: 15
nutsedge, yellow; [4]
  Plant response rating, Nutsedge, Yellow: 10
soybean; [1]
  Plant response rating (scale of 0 to 100 where 0 is no effect and 100 is complete control), Soybean: 50
soybean; [2]
  Soybean plant response rating: 80
soybean; [3]
  Plant response rating, Soybean: 85
soybean; [4]
  Plant response rating, Soybean: 80
kochia; [1]
  Plant response rating (scale of 0 to 100 where 0 is no effect and 100 is complete control), Kochia: 85
kochia; [2]
  Kochia plant response rating: 90
kochia; [3]
  Plant response rating, Kochia: 90
kochia; [4]
  Plant response rating, Kochia: 90
